Results as given in patent publication US20140328795A1, “VIRUCIDAL SMALL MOLECULE AND USES THEREOF” (The Texas A&M University System, priority 2012, published 2014).
Where two headings read alike, the source gives them in different places.

How the values were obtained:
[1] = tested on: HIV-1 (X4 NL4.3) particles; settings: 10 μM PD, 30 min, 37° C.; 20-70% sucrose gradient
DC-associated HIV-1 = format: cell-based; settings: 10 μM PD added to DC 2 h after virus, pseudotyped NL4.3ΔEnv-eGFP/gp160 Env virus, Jurkat T cells, 3 days
VSV-Gpp = format: physicochemical
primary HIV-1 isolates = assay: microbe, parasite or virus in culture; format: cell-based; settings: Human immunodeficiency virus 1, TZM-bl
[2] = tested on: freshly activated human PBMCs
[3] = tested on: HepG2, HCT-8, Huh-7, Huh-7.5, TZM, PC3 and 293T cells; format: cell-based, human
[4] = tested on: primary CD4+ T-lymphocytes, macrophages and dendritic cells; assay: Primary cells toxicity testing (LDH release); settings: up to 14 days
HCVcc = format: cell-based, HCV
[5] = tested on: commensal Lactobacillus species; assay: Lactobacillus toxicity testing, all strains together; format: cell-based
Description: Reference strains of L. crispatus and L. jensenii were obtained from the ATCC (Manassas, Va.) and cultured on Columbia blood agar plates at 35° C. in air enriched with 6% CO2. Bacterial suspensions were prepared in saline or ACES buffer to a density of 2 McFarland units (˜2×10^8 bacteria/mL), and exposed to PD (300 μM) or DMSO (10%) for 30 minutes at 37° C. After incubation, the cells were serially diluted in ACES buffer, pH 7.0 (Sigma-Aldrich, St. Louis, Mo.) and plated on blood agar plates to quantify colony forming unit per mL (CFU/mL)
Different bacterial strains were incubated with 300 μM PD or solvent DMSO-containing control media at 37° C. for 30 min and plated on blood agar plates to estimate their corresponding colony forming units per ml (CFU/ml). Less than 1 log difference between control and test CFU is considered non-toxic17.

## N=C1Sc2ccccc2C2=NCCCN12 [PD, PD 404,182]
[1]
  sedimentation of HIV-1 capsid and RT in sucrose gradient: viral capsid and RT relocate to the top of the gradient
DC-associated HIV-1
  DC to T cell transmission of HIV-1: prevents subsequent T cell infection with the pseudotyped virus
VSV-Gpp
  antiviral activity lost: no activity loss
VSV-Gpp; pH 4
  stability: highly stable
Primary HIV-1 isolates; HIV-1 92HT599 (clade B, X4), PD in DMEM with 10% fetal bovine serum, IC90 per footnote
  IC90: 5.8 µM
Primary HIV-1 isolates; HIV-1 92HT599 (clade B, X4), PD in cervical fluids, IC90 per footnote
  IC90: 6.4 µM
Primary HIV-1 isolates; HIV-1 92HT599 (clade B, X4), PD in seminal plasma, IC90 per footnote
  IC90: 6.31 µM
Primary HIV-1 isolates; HIV-1 92RW021 (clade A, R5), PD in DMEM with 10% fetal bovine serum, IC90 per footnote
  IC90: 3.8 µM
Primary HIV-1 isolates; HIV-1 92RW021 (clade A, R5), PD in cervical fluids, IC90 per footnote
  IC90: 4.4 µM
Primary HIV-1 isolates; HIV-1 92TH003 (clade E, R5), PD in DMEM with 10% fetal bovine serum, IC90 per footnote
  IC90: 8.6 µM
Primary HIV-1 isolates; HIV-1 92TH003 (clade E, R5), PD in cervical fluids, IC90 per footnote
  IC90: 7.8 µM
Primary HIV-1 isolates; HIV-1 92TH003 (clade E, R5), PD in seminal plasma, IC90 per footnote
  IC90: 6.73 µM
Primary HIV-1 isolates; HIV-1 92TH029 (clade B, R5), PD in DMEM with 10% fetal bovine serum, IC90 per footnote
  IC90: 2.8 µM
Primary HIV-1 isolates; HIV-1 92TH029 (clade B, R5), PD in cervical fluids, IC90 per footnote
  IC90: 3.3 µM
Primary HIV-1 isolates; HIV-1 92TH029 (clade B, R5), PD in seminal plasma, IC90 per footnote
  IC90: 2.95 µM
Primary HIV-1 isolates; HIV-1 92UG024 (clade D, X4), PD in DMEM with 10% fetal bovine serum
  IC50: 0.33 µM
Primary HIV-1 isolates; HIV-1 92UG024 (clade D, X4), PD in DMEM with 10% fetal bovine serum, IC90 per footnote
  IC90: 1.4 µM
Primary HIV-1 isolates; HIV-1 92UG024 (clade D, X4), PD in cervical fluids, IC90 per footnote
  IC90: 1.8 µM
Primary HIV-1 isolates; HIV-1 92UG024 (clade D, X4), PD in seminal plasma, IC90 per footnote
  IC90: 1.68 µM
Primary HIV-1 isolates; HIV-1 92UG029 (clade A, X4), PD in DMEM with 10% fetal bovine serum, IC90 per footnote
  IC90: 4.4 µM
Primary HIV-1 isolates; HIV-1 92UG029 (clade A, X4), PD in cervical fluids, IC90 per footnote
  IC90: 5.3 µM
Primary HIV-1 isolates; HIV-1 92UQ085 (clade D, R5), PD in DMEM with 10% fetal bovine serum, IC90 per footnote
  IC90: 5.3 µM
Primary HIV-1 isolates; HIV-1 92UQ085 (clade D, R5), PD in cervical fluids, IC90 per footnote
  IC90: 6.7 µM
Primary HIV-1 isolates; HIV-1 92UQ085 (clade D, R5), PD in seminal plasma, IC90 per footnote
  IC90: 6.67 µM
Primary HIV-1 isolates; HIV-1 93BR020 (clade F, X4), PD in DMEM with 10% fetal bovine serum, IC90 per footnote
  IC90: 6.8 µM
Primary HIV-1 isolates; HIV-1 93BR020 (clade F, X4), PD in cervical fluids, IC90 per footnote
  IC90: 7.6 µM
Primary HIV-1 isolates; HIV-1 93BR020 (clade F, X4), PD in seminal plasma, IC90 per footnote
  IC90: 7.19 µM
Primary HIV-1 isolates; HIV-1 93BR028 (clade F, R5), PD in DMEM with 10% fetal bovine serum, IC90 per footnote
  IC90: 3.6 µM
Primary HIV-1 isolates; HIV-1 93BR028 (clade F, R5), PD in cervical fluids, IC90 per footnote
  IC90: 4.6 µM
Primary HIV-1 isolates; HIV-1 93BR028 (clade F, R5), PD in seminal plasma, IC90 per footnote
  IC90: 3.72 µM
Primary HIV-1 isolates; HIV-1 93IN101 (clade C, R5), PD in DMEM with 10% fetal bovine serum, IC90 per footnote
  IC90: 5.1 µM
Primary HIV-1 isolates; HIV-1 93IN101 (clade C, R5), PD in cervical fluids, IC90 per footnote
  IC90: 5.6 µM
Primary HIV-1 isolates; HIV-1 93IN101 (clade C, R5), PD in seminal plasma, IC90 per footnote
  IC90: 5.38 µM
Primary HIV-1 isolates; HIV-1 93TH083 (clade E, X4), PD in DMEM with 10% fetal bovine serum, IC90 per footnote
  IC90: 6.3 µM
Primary HIV-1 isolates; HIV-1 93TH083 (clade E, X4), PD in cervical fluids, IC90 per footnote
  IC90: 6.4 µM
Primary HIV-1 isolates; HIV-1 93TH083 (clade E, X4), PD in seminal plasma, IC90 per footnote
  IC90: 6.66 µM
Primary HIV-1 isolates; HIV-1 98IN017 (clade C, X4), PD in cervical fluids, IC90 per footnote
  IC90: 2.4 µM
Primary HIV-1 isolates; HIV-1 98IN017 (clade C, X4), PD in seminal plasma, IC90 per footnote
  IC90: 2.09 µM
Primary HIV-1 isolates; HIV-1 Jv1063 (clade G, R5), PD in DMEM with 10% fetal bovine serum, IC90 per footnote
  IC90: 3.8 µM
Primary HIV-1 isolates; HIV-1 RU132 (clade G, R5), PD in DMEM with 10% fetal bovine serum
  IC50: 0.8 µM
Primary HIV-1 isolates; HIV-1 RU132 (clade G, R5), PD in DMEM with 10% fetal bovine serum, IC90 per footnote
  IC90: 3.1 µM
Primary HIV-1 isolates; HIV-1 RU132 (clade G, R5), PD in cervical fluids, IC90 per footnote
  IC90: 3.8 µM
Primary HIV-1 isolates; HIV-1 RU132 (clade G, R5), PD in seminal plasma, IC90 per footnote
  IC90: 3.26 µM
Primary HIV-1 isolates; broad range of primary HIV-1 isolates as well as HIV-2
  IC50: ~1 µM
Primary HIV-1 isolates; read-out: IC50, range over the tested subtypes of HIV-1, PD in DMEM, TZM-bl
  IC50: 0.33 to 1.8 µM
Primary HIV-1 isolates; read-out: IC50, range over the tested subtypes of HIV-1, PD in cervical fluid, TZM-bl
  IC50: 0.61 to 2.3 µM
Primary HIV-1 isolates; read-out: IC90, range over the tested subtypes of HIV-1, PD in DMEM, TZM-bl
  IC90: 1.4 to 6.6 µM
Primary HIV-1 isolates; read-out: IC90, range over the tested subtypes of HIV-1, PD in cervical fluid, TZM-bl
  IC90: 1.8 to 7.5 µM
Primary HIV-1 isolates; several isolates of HIV-1 and SIV in TZM-bl cells, PD diluted in DMEM or cervical fluid
  IC50: ~1 µM
[2]
  reduction in cell viability: 48%
[3]; cervical cancer cells
  CC50: > 300 µM
[3]; seven different human cell lines, including TZM-bl (HeLa)
  CC50: > 300 µM
[4]
  CC50: > 300 µM
HCVcc
  inhibition of virus infectivity: > 10 fold
[5]; 300 μM PD, 37° C., 30 min
  effect on Lactobacillus strains: no adverse effect
[5]; vaginal commensal bacteria Lactobacilli
  CC50: > 300 µM
